Reference: publication PMC8494430, “Development of a fluorogenic ADAMTS-7 substrate” (Journal of Enzyme Inhibition and Medicinal Chemistry, 2021)

What was measured:
ADAMTS-4 = biological target: T1, ADAMTS-4 (Homo sapiens, UniProt O75173); assay: Cleavage of ATS7FP7 by ADAMTS-4 (kinetic constants); type: biochemical; conditions: cleavage of ATS7FP7 by ADAMTS-4 (10 nM), 37 °C
T1 construct: made in house
T1 sequence (O75173 213-837): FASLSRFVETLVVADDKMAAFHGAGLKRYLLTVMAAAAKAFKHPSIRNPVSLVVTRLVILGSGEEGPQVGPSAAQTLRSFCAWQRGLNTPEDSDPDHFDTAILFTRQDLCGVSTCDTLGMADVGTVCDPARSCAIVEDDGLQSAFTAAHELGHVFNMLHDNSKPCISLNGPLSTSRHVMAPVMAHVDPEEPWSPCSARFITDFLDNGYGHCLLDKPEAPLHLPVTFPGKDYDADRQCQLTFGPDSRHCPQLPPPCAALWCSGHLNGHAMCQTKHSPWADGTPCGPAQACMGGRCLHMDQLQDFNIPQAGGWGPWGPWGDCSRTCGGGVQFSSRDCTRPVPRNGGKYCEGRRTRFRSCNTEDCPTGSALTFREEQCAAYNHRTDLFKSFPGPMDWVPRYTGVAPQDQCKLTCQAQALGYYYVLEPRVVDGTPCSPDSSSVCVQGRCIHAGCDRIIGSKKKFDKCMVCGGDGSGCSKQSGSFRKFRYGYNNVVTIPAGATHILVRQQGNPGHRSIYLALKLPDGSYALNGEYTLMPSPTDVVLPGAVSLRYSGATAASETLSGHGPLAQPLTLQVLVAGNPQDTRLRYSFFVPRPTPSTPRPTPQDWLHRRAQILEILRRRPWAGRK
Protocol: All enzyme assays were conducted in TNC-B buffer (50 mM Tris- HCl, pH 7.5, 150 mM NaCl, 10 mM CaCl2, and 0.02% NaN3) at 37 °C in 384 well plates (Cat. No: 784900, Greiner Bio-One, Austria). To avoid the formation of inhibitor or peptide aggregates, the detergent Brij-35 (0.05%) was added to TNC-B[13]. For inhibition studies, stock solutions of chemical compounds were prepared in dimethyl sulfoxide (DMSO) (10 mM). These were further diluted at different concentrations in TNC-B and incubated with ADAMTS-1, ADAMTS-4, ADAMTS-5, ADAMTS-7 or ADAMTS-8 (10 nM) for 1 h at 37 °C. Blank samples were prepared using buffer only and the rate of cleavage for blank reactions was subtracted from the rates measured in the presence of enzyme. Upon addition of the indicated ADAMTS-7 FRET substrates (40 µM), the fluorescence was measured immediately using a FLUOstar Omega microplate reader (BMG Labtech, Germany) with an excitation filter wavelength of 485 nm and an emission filter wavelength of 520 nm. […]
Supplementary Figure 6: Cleavage of ATS7FP7 by members of the ADAMTS family. […] Fluorescence was detected (λex = 485 nm, λem = 520 nm) for 8 h at 37°C and reported as relative fluorescence units (RFU). […]

MMP-2 = biological target: T2, MMP-2 (Homo sapiens, UniProt P08253); assay: MMP-2 FRET peptide inhibition assay; type: biochemical; conditions: Cheng-Prusoff, read-out: Ki app MMP-2
T2 sequence (P08253 110-660): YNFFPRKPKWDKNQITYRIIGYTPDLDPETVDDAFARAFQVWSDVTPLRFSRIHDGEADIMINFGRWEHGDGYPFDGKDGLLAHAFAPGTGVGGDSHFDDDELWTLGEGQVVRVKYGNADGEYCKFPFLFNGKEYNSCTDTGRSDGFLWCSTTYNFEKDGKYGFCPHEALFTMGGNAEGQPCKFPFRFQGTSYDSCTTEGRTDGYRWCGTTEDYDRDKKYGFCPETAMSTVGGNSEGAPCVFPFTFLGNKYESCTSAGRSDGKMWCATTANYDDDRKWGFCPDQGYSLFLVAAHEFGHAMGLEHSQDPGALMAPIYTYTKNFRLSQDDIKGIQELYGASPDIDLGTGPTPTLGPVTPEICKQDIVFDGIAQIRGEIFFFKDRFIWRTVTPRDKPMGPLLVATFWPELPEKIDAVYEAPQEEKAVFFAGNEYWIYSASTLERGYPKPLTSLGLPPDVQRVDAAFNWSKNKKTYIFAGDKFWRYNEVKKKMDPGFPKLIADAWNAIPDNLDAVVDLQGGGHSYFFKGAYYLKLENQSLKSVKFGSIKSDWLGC
Excerpt: Substrate and Km values are in micromolar.
2,3-diaminopropionyl diaminopropionic amide; Fam, 5,6-carboxyfluorescein; Mca, 7-
Enzyme Substrate [S] Km Reference

Ki (MMP-2) [nM] | Compound | Km (ADAMTS-4) [µM] | kcat (ADAMTS-4) [s⁻¹]
 | Glu-Ala-Ala-Ala-Arg↓Ala-Glu↓Ala-Ala-Ala-Lys [ATS7FP7] | 9.5 ± 1.7 | 0.116 ± 0.0060
4 ± 0.3 | O=C(NCCC[C@@H](NS(=O)(=O)c1ccc(OCc2ccc(F)cc2Cl)cc1)C(=O)NO)c1ccccc1 [EDV33] |  | 
